Molecular target: T4 polynucleotide kinase (T4 PNK) (Tequatrovirus T4, UniProt P06855)
Format: biochemical

T4 polynucleotide kinase (T4 PNK), sequence (P06855 whole entry): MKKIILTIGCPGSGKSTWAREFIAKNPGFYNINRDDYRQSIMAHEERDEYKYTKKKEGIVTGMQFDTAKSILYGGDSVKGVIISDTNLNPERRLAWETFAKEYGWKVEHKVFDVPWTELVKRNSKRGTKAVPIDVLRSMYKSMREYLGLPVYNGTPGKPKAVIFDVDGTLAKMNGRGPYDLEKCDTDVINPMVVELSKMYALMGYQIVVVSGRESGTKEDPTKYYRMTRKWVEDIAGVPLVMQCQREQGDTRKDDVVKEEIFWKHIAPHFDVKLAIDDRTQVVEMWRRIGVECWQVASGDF

O=S(=O)(O)O [(NH4)2SO4]
IC50: 18 mM
